This note sets out measurements from patent US20260028365A1 (BIOGEN MA INC., priority 2022, published 2026).

pIC50: −log10 of the molar value. Where two headings read alike, the source gives them in different places.

By pIC50 is commonly meant the IC50 on a negative log10 scale, so that one unit is a factor of ten. Read a low pIC50 as a high IC50.

One assay addresses JAK2 (Homo sapiens (Human), UniProt O60674). Put plainly: pSTAT5 Cell Assay (MSD, TF1 cells). It is filed as cell-based. Conditions: MSD. On the procedure: Compounds of the disclosure were assessed for their ability to inhibit the JAK2 kinase activity on STAT5 utilizing an MSD-platform plate-based assay format. TF1 cells natively expressing STAT5 and JAK2 were serum-starved to reduce background phosphorylation levels, then cells were treated with compounds of disclosure for 1 hour with a 10-point four-fold dilution series starting at 10 μM. Cells were then stimulated with 30 ng/mL IL-3 for 15 minutes. Cells were then lysed and pSTAT5 levels were quantitated using an MSD plate-based assay with anti-STAT5 antibodies. The data were normalized and the percent activity versus log concentration of compound was fitted with a 4-parameter logistic model to generate a curve and an IC50 value.

The target of the next assay is JAK1 (Homo sapiens (Human), UniProt P23458). The assay can be described thus: pSTAT3 Cell Assay (MSD, TF1 cells). In kind it is cell-based. On the procedure:
The inhibitory potency of compounds of the disclosure against the JAK1 kinase activity on STAT3 was evaluated using an MSD-platform plate-based assay format. TF1 cells natively expressing STAT3 and JAK1 were serum-starved to reduce background phosphorylation levels, then cells were treated with compounds of the disclosure for 1 hour with a 10-point four-fold dilution series starting at 10 μM. Cells were then stimulated with 30 ng/mL interleukin 6 (IL-6) for 15 minutes. Cells were lysed and pSTAT3 levels were quantitated using an MSD plate-based assay with anti-STAT3 antibodies. The data were normalized and the percent activity versus log concentration of compound was fitted with a 4-parameter logistic model to generate IC50 curves.

For a further assay, the target named is JH2 domain of human Tyk2 (Homo sapiens (Human), UniProt P29597). The assay can be described thus: JH2 Biochemical Assay (TR-FRET probe displacement). It is filed as binding. (In general: Time-resolved FRET reads energy transfer from a long-lived donor to a nearby acceptor.)
Chain of JH2 domain of human Tyk2 (P29597 575-876): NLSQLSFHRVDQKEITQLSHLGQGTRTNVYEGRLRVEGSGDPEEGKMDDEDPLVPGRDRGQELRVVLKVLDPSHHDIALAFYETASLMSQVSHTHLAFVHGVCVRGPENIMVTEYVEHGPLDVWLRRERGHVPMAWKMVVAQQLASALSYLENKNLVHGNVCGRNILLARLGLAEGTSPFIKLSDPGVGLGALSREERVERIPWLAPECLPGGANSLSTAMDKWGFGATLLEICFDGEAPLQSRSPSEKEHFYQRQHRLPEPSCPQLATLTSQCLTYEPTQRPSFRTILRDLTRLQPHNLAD
For a further assay, the target named is Tyk2 (Homo sapiens (Human), UniProt P29597). Put plainly: pSTAT4 Cell Assay (MSD, NK92 cells). It is filed as cell-based.
Chain of Tyk2 (P29597 whole entry, the tested form may be a part): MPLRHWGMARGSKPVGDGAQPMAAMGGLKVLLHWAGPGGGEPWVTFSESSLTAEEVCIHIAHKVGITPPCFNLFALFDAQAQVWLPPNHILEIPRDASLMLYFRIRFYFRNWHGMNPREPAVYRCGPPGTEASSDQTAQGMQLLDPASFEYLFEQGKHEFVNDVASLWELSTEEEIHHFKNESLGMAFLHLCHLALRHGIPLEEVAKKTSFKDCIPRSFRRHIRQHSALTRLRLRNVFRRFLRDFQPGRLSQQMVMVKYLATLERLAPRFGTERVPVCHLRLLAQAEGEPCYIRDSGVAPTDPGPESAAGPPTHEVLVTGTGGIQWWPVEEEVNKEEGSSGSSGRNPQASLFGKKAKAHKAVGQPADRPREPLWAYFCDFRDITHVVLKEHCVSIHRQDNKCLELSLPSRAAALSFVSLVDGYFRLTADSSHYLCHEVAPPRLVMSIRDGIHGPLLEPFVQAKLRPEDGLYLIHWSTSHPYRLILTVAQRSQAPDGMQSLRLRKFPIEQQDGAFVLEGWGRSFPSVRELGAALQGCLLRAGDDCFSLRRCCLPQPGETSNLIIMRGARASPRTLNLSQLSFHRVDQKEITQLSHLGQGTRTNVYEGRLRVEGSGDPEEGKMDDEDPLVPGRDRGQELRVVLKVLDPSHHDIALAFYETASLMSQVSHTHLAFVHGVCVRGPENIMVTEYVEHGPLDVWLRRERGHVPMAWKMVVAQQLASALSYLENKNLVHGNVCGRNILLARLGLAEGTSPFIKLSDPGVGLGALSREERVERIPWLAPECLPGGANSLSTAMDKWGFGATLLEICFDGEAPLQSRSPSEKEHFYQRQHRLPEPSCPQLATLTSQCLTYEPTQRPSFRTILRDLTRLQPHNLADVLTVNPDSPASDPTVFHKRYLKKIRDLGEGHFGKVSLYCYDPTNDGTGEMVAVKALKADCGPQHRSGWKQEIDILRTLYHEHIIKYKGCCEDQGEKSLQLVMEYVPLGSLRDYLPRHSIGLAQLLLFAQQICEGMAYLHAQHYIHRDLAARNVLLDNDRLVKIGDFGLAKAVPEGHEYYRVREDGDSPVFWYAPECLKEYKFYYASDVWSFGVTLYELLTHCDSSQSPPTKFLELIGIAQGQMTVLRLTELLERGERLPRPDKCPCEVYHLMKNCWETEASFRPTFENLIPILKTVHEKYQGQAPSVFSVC
Where [1] appears, read: JH2 domain of human Tyk2, TR-FRET probe displacement.
[2] abbreviates: TR-FRET probe displacement, JH2 domain.

Chain of JAK1 (P23458 whole entry): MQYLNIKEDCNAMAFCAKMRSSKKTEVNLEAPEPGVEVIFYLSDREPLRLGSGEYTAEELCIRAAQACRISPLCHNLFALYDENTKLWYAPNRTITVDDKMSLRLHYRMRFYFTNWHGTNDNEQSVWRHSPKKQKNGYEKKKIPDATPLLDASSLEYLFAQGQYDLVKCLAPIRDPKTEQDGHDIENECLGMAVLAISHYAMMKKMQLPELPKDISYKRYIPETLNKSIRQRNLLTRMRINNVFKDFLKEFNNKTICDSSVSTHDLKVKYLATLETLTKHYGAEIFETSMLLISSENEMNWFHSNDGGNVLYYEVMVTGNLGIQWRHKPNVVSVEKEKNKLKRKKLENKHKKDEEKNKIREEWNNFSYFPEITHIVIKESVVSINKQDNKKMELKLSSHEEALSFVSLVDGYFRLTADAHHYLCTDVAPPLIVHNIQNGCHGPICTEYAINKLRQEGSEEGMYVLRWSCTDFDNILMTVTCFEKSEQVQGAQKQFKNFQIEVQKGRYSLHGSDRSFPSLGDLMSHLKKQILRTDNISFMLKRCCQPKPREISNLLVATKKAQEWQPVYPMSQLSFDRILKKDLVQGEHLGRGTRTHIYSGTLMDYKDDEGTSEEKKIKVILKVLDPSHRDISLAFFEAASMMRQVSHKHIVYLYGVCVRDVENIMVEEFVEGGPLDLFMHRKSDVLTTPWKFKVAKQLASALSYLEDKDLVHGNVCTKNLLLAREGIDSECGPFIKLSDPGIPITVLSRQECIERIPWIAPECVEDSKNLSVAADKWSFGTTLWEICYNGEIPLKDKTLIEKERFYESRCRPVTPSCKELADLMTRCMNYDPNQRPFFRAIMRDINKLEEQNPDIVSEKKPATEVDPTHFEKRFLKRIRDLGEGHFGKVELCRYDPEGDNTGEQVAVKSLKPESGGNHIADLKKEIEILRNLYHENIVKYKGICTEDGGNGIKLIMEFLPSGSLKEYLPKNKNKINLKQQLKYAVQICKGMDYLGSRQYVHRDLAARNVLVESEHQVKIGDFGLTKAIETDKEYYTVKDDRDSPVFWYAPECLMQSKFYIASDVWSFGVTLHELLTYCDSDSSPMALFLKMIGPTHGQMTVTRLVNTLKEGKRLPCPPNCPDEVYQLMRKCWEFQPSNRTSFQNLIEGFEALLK
Chain of JAK2 (O60674 whole entry): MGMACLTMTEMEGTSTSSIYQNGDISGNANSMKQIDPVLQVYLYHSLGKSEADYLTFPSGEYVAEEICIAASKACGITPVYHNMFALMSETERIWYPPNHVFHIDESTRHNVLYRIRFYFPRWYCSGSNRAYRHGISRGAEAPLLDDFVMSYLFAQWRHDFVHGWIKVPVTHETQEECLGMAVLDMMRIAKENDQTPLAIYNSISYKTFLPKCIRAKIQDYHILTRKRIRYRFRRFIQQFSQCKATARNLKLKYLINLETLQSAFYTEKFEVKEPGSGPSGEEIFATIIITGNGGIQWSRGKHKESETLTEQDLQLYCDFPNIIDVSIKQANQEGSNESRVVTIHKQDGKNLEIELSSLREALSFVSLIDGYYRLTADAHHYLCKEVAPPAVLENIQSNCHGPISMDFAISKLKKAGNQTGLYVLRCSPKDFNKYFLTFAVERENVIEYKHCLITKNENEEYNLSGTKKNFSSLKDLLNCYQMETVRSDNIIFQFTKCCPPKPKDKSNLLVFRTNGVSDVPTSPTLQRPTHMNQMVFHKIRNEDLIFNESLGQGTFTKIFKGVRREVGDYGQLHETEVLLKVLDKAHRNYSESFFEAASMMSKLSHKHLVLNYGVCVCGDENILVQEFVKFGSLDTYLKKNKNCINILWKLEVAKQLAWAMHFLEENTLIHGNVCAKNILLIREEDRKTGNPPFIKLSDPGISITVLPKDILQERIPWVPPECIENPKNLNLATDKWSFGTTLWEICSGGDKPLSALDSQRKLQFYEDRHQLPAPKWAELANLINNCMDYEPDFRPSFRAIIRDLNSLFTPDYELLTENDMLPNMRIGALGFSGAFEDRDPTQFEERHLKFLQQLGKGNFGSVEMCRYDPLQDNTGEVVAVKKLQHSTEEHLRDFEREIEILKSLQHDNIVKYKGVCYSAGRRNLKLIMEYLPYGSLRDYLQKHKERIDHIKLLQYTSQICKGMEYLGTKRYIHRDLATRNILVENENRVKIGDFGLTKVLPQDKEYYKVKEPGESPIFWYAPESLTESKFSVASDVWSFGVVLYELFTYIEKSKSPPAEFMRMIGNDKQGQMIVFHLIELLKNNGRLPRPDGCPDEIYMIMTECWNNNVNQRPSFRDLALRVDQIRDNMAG

`CC(=O)Nc1cc(Nc2cc(C)nc(C(C)(F)F)n2)c(OC[C@H]2C[C@H]2F)cn1` (racemic) [Example 425, Cis-rac-N-(4-((2-(1,1-difluoroethyl)-6-methylpyrimidin-4-yl)amino)-5-((2-fluorocyclopropyl)methoxy)pyridin-2-yl)acetamide]: the pIC50 at JAK2 (IL-3 stimulated) is at most 6.00; against JAK1 (IL-6 stimulated, MSD), at most 6.00; on JH2 domain of human Tyk2 (setting [1]), at least 8.00; on Tyk2 (MSD), at least 8.00.
Regarding `CC(=O)Nc1cc(Nc2cc(C)nc(C(C)(F)F)n2)c(OC[C@H]2C[C@@H]2F)cn1` (racemic) [Example 426, Trans-rac-N-(4-((2-(1,1-difluoroethyl)-6-methylpyrimidin-4-yl)amino)-5-((2-fluorocyclopropyl)methoxy)pyridin-2-yl)acetamide], the pIC50 at JAK2 (IL-3 stimulated) was at most 6.00; on JAK1 (IL-6 stimulated, MSD), at most 6.00; on JH2 domain of human Tyk2 (setting [1]) it was at least 8.00; against Tyk2 (MSD), at least 8.00.
With `CC(=O)Nc1cc(Nc2cc(C)nc(C(C)(F)F)n2)c(OC[C@H]2CCCO2)cn1` (single isomer, unassigned) [Example 294, (R)-N-(4-((2-(1,1-difluoroethyl)-6-methylpyrimidin-4-yl)amino)-5-((tetrahydrofuran-2-yl)methoxy)pyridin-2-yl)acetamide or (S)-N-(4-((2-(1,1-difluoroethyl)-6-methylpyrimidin-4-yl)amino)-5-((tetrahydrofuran-2-yl)methoxy)pyridin-2-yl)acetamide], the pIC50 at JAK2 (IL-3 stimulation) was at most 6.00; on JAK1 (IL-6 stimulation, MSD) it was at most 6.00; on JH2 domain of human Tyk2 (TR-FRET probe displacement, JH2 domain of human Tyk2), at least 8.00; against Tyk2 (MSD), at least 8.00.
Take `CC(=O)Nc1cc(Nc2cc(OC3CC3)nc(C(C)(F)F)n2)c(OC[C@@H]2COCCO2)cn1` (single isomer, unassigned) [Example 453, (S)-N-(5-((1,4-dioxan-2-yl)methoxy)-4-((6-cyclopropoxy-2-(1,1-difluoroethyl)pyrimidin-4-yl)amino)pyridin-2-yl)acetamide or (R)-N-(5-((1,4-dioxan-2-yl)methoxy)-4-((6-cyclopropoxy-2-(1,1-difluoroethyl)pyrimidin-4-yl)amino)pyridin-2-yl)acetamide]: the pIC50 against JAK2 (IL-3 stimulated) is at most 6.00; against JAK1 (IL-6 stimulated, MSD), at most 6.00; at JH2 domain of human Tyk2 (setting [1]), at least 8.00; against Tyk2 (MSD), at least 8.00.
As to `CC(=O)Nc1cc(Nc2cc(C)nc(C(C)(F)F)n2)c(OCC(C)(C)F)cn1` [Example 119, N-(4-((2-(1,1-difluoroethyl)-6-methylpyrimidin-4-yl)amino)-5-(2-fluoro-2-methylpropoxy)pyridin-2-yl)acetamide], the pIC50 against JAK2 (IL-3 stimulation) was at most 6.00; on JAK1 (IL-6 stimulation, MSD) it was at most 6.00; on Tyk2 (MSD), 7.00 to 8.00.
For the molecule `CC(=O)Nc1cc(Nc2cc(C)nc(C(C)(F)F)n2)c(OCC2COCCO2)cn1` (stereo not shown) [Example 135, N-(5-((1,4-dioxan-2-yl)methoxy)-4-((2-(1,1-difluoroethyl)-6-methylpyrimidin-4-yl)amino)pyridin-2-yl)acetamide], the pIC50 against JAK2 (IL-3 stimulation) is at most 6.00; against JAK1 (IL-6 stimulation, MSD), at most 6.00; at Tyk2 (MSD), at least 8.00.
With `Cc1cc(Nc2cc(NC(N)=O)ncc2-c2ccc(F)cn2)nc(C(C)(F)F)n1` [Example 291, 1-(4′-((2-(1,1-difluoroethyl)-6-methylpyrimidin-4-yl)amino)-5-fluoro-[2,3′-bipyridin]-6′-yl)urea], the pIC50 is at most 6.00 against JAK2 (IL-3 stimulation); 6.00 to 7.00 on JAK1 (IL-6 stimulation, MSD); at least 8.00 against Tyk2 (MSD).
Take `Cc1cc(Nc2cc(NC(N)=O)ncc2-c2ccc(C#N)cn2)nc(C(C)(F)F)n1` [Example 292, 1-(5-cyano-4′-((2-(1,1-difluoroethyl)-6-methylpyrimidin-4-yl)amino)-[2,3′-bipyridin]-6′-yl)urea]: the pIC50 at JAK2 (IL-3 stimulation) is at most 6.00; against JAK1 (IL-6 stimulation, MSD), at most 6.00; against Tyk2 (MSD), at least 8.00.
As to `COCCn1ncc(-c2cnc(NC(C)=O)cc2Nc2ccnc(C(C)(F)F)n2)n1` [Example 710, N-(4-((2-(1,1-difluoroethyl)pyrimidin-4-yl)amino)-5-(2-(2-methoxyethyl)-2H-1,2,3-triazol-4-yl)pyridin-2-yl)acetamide], the pIC50 on JAK2 (IL-3 stimulated) is at most 6.00; at JH2 domain of human Tyk2 (setting [1]), at least 8.00; on Tyk2 (MSD) it was at least 8.00.
Turning to `COCCOc1nccc(-c2cnc(NC(C)=O)cc2Nc2cc(C)nc(C(C)(F)F)n2)n1` [Example 776, N-(4-((2-(1,1-difluoroethyl)-6-methylpyrimidin-4-yl)amino)-5-(2-(2-methoxyethoxy)pyrimidin-4-yl)pyridin-2-yl)acetamide], the pIC50 against JAK1 (IL-6 stimulated) is at most 6.00; on JH2 domain of human Tyk2 (setting [2]), at least 8.00; on Tyk2, at least 8.00.
As to `CC(=O)Nc1cc(Nc2ccnc(C(C)(F)F)n2)c(-c2cn3c(n2)CCCC3)cn1` [Example 780, N-(4-((2-(1,1-difluoroethyl)pyrimidin-4-yl)amino)-5-(5,6,7,8-tetrahydroimidazo[1,2-a]pyridin-2-yl)pyridin-2-yl)acetamide], the pIC50 against JAK1 (IL-6 stimulated) was at most 6.00; on JH2 domain of human Tyk2 (setting [2]), at least 8.00; against Tyk2, at least 8.00.
`CC(=O)Nc1cc(Nc2ccnc(C(C)(F)F)n2)c(-c2nc3c(s2)CN(C)CC3)cn1` [Example 798, N-(4-((2-(1,1-difluoroethyl)pyrimidin-4-yl)amino)-5-(5-methyl-4,5,6,7-tetrahydrothiazolo[5,4-c]pyridin-2-yl)pyridin-2-yl)acetamide]: the pIC50 at JAK1 (IL-6 stimulated) is at most 6.00; on JH2 domain of human Tyk2 (setting [2]) it was at least 8.00; at Tyk2, at least 8.00.
In the case of `CC(=O)Nc1cc(Nc2cc(C)nc(C(C)(C)F)n2)c(-c2ccncn2)cn1` [Example 800, N-(4-((2-(2-fluoropropan-2-yl)-6-methylpyrimidin-4-yl)amino)-5-(pyrimidin-4-yl)pyridin-2-yl)acetamide], the figures for the pIC50 at JAK1 (IL-6 stimulated), at JH2 domain of human Tyk2 (setting [2]) and at Tyk2 were at most 6.00, at least 8.00 and at least 8.00, respectively.
Consider `CCc1cc(Nc2cc(NC(C)=O)ncc2-c2ccc(OC(F)F)cn2)nc(C(C)(F)F)n1` [Example 849, N-(4′-((2-(1,1-difluoroethyl)-6-ethylpyrimidin-4-yl)amino)-5-(difluoromethoxy)-[2,3′-bipyridin]-6′-yl)acetamide], for which the results for the pIC50 against JAK1 (IL-6 stimulated), on JH2 domain of human Tyk2 (setting [2]) and against Tyk2 were at most 6.00, at least 8.00 and at least 8.00, respectively.
As for `CNc1ccc(-c2cnc(NC(C)=O)cc2Nc2ccnc(C(C)(F)F)n2)nc1` [Example 857, N-(4′-((2-(1,1-difluoroethyl)pyrimidin-4-yl)amino)-5-(methylamino)-[2,3′-bipyridin]-6′-yl)acetamide], the pIC50 on JAK1 (IL-6 stimulated) was at most 6.00; at JH2 domain of human Tyk2 (setting [2]), at least 8.00; on Tyk2, at least 8.00.
Regarding `CCc1cc(Nc2cc(NC(C)=O)ncc2-c2ccc(NC)cn2)nc(C(C)(F)F)n1` [Example 859, N-(4′-((2-(1,1-difluoroethyl)-6-ethylpyrimidin-4-yl)amino)-5-(methylamino)-[2,3′-bipyridin]-6′-yl)acetamide], the figures for the pIC50 on JAK1 (IL-6 stimulated), on JH2 domain of human Tyk2 (setting [2]) and against Tyk2 were at most 6.00, at least 8.00 and at least 8.00, respectively.
Take `CCc1cc(Nc2cc(NC(C)=O)ncc2-c2cnc(N3CCOCC3)cn2)nc(C(C)(F)F)n1` [Example 861, N-(4-((2-(1,1-difluoroethyl)-6-ethylpyrimidin-4-yl)amino)-5-(5-morpholinopyrazin-2-yl)pyridin-2-yl)acetamide]: the pIC50 is at most 6.00 against JAK1 (IL-6 stimulated), at least 8.00 at JH2 domain of human Tyk2 (setting [2]) and 7.00 to 8.00 at Tyk2.
For `CCc1cc(Nc2cc(NC(C)=O)ncc2-c2cc(C(F)F)ncn2)nc(C(C)(F)F)n1` [Example 891, N-(4-((2-(1,1-difluoroethyl)-6-ethylpyrimidin-4-yl)amino)-5-(6-(difluoromethyl)pyrimidin-4-yl)pyridin-2-yl)acetamide], in that order: at most 6.00, at least 8.00 and at least 8.00.
With `CC(=O)Nc1cc(Nc2ccnc(C(C)(F)F)n2)c(-c2ccc(CN3CCOC[C@@H]3C)cn2)cn1` [Example 892, (S)-N-(4′-((2-(1,1-difluoroethyl)pyrimidin-4-yl)amino)-5-((3-methylmorpholino)methyl)-[2,3′-bipyridin]-6′-yl)acetamide], the results for the pIC50 on JAK1 (IL-6 stimulated), on JH2 domain of human Tyk2 (setting [2]) and against Tyk2 were at most 6.00, at least 8.00 and at least 8.00, respectively.
Consider `CCc1cc(Nc2cc(NC(C)=O)ncc2-c2cnn(C)n2)nc(C(C)(F)F)n1` [Example 918, N-(4-((2-(1,1-difluoroethyl)-6-ethylpyrimidin-4-yl)amino)-5-(2-methyl-2H-1,2,3-triazol-4-yl)pyridin-2-yl)acetamide], for which the pIC50 on JAK1 (IL-6 stimulated) was at most 6.00; on JH2 domain of human Tyk2 (setting [2]), at least 8.00; at Tyk2 it was at least 8.00.
As to `CC(=O)Nc1cc(Nc2cc(C)nc(C(C)(F)F)n2)c(-c2cnc(C(F)F)cn2)cn1` [Example 921, N-(4-((2-(1,1-difluoroethyl)-6-methylpyrimidin-4-yl)amino)-5-(5-(difluoromethyl)pyrazin-2-yl)pyridin-2-yl)acetamide], the pIC50 against JAK1 (IL-6 stimulated) is at most 6.00; on JH2 domain of human Tyk2 (setting [2]), at least 8.00; at Tyk2, 7.00 to 8.00.
